Measured values taken from patent US12679822B2, “Alkenyl pyrimidine compound, preparation method therefor, and application thereof” (Hongyun Biotech Co., Ltd., priority 2020, dated 2026).

What was measured:
Format in all cases: cell-based
[1] = molecular target: BaF3 cell lines stably transfected with kinase EGFR L858R/T790M/C797S (Homo sapiens, UniProt P00533, T790M/C797S/L858R, cells depend on it); experiment: Growth inhibition of BaF3 cell line stably transfected with kinase EGFR L858R/T790M/C797S (MTS); details: 48 h, read-out: growth inhibitory activity IC50, L858R/T790M/C797S
Procedure: (§1) Biological Activity Assay: Growth Inhibitory Activity of Compounds on Cell Lines Stably Transfected with Kinase
(§2) The activity of compounds against various mutants of kinase EGFR was evaluated by their effect of inhibiting growth of BaF3 cell lines stably transfected with kinase. The specific test method was given as follows:
(§3) 1) Culture medium: DMEM (Dulbecco's modified eagle medium) or RPMI 1640 (containing 10% fetal bovine serum, 100 μg/mL ampicillin, 100 μg/mL streptomycin).
(§4) 2) Reagent: MTS reaction solution (containing 2 mg/mL of MTS [3-(4,5-di methylthiazol-2-yl)-5-(3-carboxymethoxyphenyl)-2-(4-sulfophenyl)-2H-tetrazolium, inner Salt]; 100 μg/mL of PES (phenazine […])).
(§5) 3) Compound test: cells were incubated into a 96-well culture plate, the volume of cytosol was 90 μL, and then 10 μL of the compound at each gradient concentration was added. That is, the highest concentration was 10 μM, which was diluted stepwise by ⅓, and 8 concentration points were set in total; 0.1% DMSO (dimethyl sulfoxide) was contained in the system. The cell plate with uniformly mixed compound was cultured in a cell culture incubator (37° C.; 5% […]) for 48 h, then 20 μL of MTS reaction solution was added, uniformly mixed and incubated in the cell culture incubator (37° C.; 5% CO2) for 1-4 h; OD values at 490 nm were measured by a microplate reader (VARIOSKAN FLASH, Thermo). Two parallels were set in each group of experiments, with 0.1% (a final concentration) DMSO as a negative control, and a culture medium without cells and compounds as a blank control. The cell growth inhibition rate was calculated by the following formula: Cell growth inhibition rate %=1−(ODexperimental group−ODblank group)/(ODnegative group−ODblank group)×100%.
(§6) 4) IC50 calculation: The semi-inhibitory concentration of the compounds acting on cells was calculated using GradPad Prism 5 software according to the measured cell growth inhibition rate.

[2] = molecular target: BaF3 cell lines stably transfected with kinase EGFR L858R (Homo sapiens, UniProt P00533, L858R, cells depend on it); experiment: Growth inhibition of BaF3 cell line stably transfected with kinase EGFR L858R (MTS); details: 48 h, read-out: growth inhibitory activity IC50, L858R
Procedure: as §1, §2, §3, §4, §5, §6

[3] = molecular target: BaF3 cell lines stably transfected with kinase EGFR Del (Homo sapiens, UniProt P00533, cells depend on it, form not given); experiment: Growth inhibition of BaF3 cell line stably transfected with kinase EGFR Del (MTS); details: 48 h, read-out: growth inhibitory activity IC50, Del
Procedure: as §1, §2, §3, §4, §5, §6

[4] = molecular target: BaF3 cell lines stably transfected with kinase EGFR Del/T790M (Homo sapiens, UniProt P00533, T790M, cells depend on it, form not given); experiment: Growth inhibition of BaF3 cell line stably transfected with kinase EGFR Del/T790M (MTS); details: 48 h, read-out: growth inhibitory activity IC50, Del/T790M
Procedure: as §1, §2, §3, §4, §5, §6

[5] = molecular target: BaF3 cell lines stably transfected with kinase EGFR Del/T790M/C797S (Homo sapiens, UniProt P00533, T790M/C797S, cells depend on it, form not given); experiment: Growth inhibition of BaF3 cell line stably transfected with kinase EGFR Del/T790M/C797S (MTS); details: 48 h, read-out: growth inhibitory activity IC50, Del/T790M/C797S
Procedure: as §1, §2, §3, §4, §5, §6

[6] = molecular target: BaF3 cell lines stably transfected with kinase EGFR L858R/T790M (Homo sapiens, UniProt P00533, T790M/L858R, cells depend on it); experiment: Growth inhibition of BaF3 cell line stably transfected with kinase EGFR L858R/T790M (MTS); details: 48 h, read-out: growth inhibitory activity IC50, L858R/T790M
Procedure: as §1, §2, §3, §4, §5, §6

Chain of BaF3 cell lines stably transfected with kinase EGFR L858R (P00533 whole entry L858R): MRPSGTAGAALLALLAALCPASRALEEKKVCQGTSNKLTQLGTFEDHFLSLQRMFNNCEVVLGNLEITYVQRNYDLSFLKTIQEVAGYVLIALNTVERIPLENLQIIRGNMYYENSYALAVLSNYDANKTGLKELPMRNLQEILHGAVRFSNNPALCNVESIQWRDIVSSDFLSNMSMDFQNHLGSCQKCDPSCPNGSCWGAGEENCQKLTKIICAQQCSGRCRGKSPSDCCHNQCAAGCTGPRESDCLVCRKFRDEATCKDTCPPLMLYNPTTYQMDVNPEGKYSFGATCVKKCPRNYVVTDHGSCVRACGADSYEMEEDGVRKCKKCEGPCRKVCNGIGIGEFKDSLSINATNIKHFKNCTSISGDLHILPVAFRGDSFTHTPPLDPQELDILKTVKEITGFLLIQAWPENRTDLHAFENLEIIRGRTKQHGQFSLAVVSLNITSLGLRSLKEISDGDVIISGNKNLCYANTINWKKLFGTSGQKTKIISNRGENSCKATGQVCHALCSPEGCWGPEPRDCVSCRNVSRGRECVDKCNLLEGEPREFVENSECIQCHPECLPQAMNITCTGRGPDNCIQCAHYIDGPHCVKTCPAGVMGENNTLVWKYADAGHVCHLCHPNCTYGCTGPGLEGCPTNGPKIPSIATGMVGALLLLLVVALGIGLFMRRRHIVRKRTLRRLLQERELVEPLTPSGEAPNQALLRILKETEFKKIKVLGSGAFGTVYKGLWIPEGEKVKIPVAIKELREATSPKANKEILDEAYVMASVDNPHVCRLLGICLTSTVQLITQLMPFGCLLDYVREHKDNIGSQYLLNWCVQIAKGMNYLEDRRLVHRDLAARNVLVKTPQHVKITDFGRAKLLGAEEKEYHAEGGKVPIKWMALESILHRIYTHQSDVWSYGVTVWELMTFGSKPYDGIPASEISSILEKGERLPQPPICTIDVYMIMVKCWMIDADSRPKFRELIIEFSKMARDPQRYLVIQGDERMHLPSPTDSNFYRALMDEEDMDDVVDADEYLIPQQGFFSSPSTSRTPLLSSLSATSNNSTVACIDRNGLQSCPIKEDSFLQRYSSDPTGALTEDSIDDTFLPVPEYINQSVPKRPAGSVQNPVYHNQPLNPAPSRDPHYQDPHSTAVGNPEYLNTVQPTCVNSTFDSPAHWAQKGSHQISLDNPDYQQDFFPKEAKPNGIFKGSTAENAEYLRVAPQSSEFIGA
Chain of BaF3 cell lines stably transfected with kinase EGFR L858R/T790M/C797S (P00533 whole entry T790M/C797S/L858R): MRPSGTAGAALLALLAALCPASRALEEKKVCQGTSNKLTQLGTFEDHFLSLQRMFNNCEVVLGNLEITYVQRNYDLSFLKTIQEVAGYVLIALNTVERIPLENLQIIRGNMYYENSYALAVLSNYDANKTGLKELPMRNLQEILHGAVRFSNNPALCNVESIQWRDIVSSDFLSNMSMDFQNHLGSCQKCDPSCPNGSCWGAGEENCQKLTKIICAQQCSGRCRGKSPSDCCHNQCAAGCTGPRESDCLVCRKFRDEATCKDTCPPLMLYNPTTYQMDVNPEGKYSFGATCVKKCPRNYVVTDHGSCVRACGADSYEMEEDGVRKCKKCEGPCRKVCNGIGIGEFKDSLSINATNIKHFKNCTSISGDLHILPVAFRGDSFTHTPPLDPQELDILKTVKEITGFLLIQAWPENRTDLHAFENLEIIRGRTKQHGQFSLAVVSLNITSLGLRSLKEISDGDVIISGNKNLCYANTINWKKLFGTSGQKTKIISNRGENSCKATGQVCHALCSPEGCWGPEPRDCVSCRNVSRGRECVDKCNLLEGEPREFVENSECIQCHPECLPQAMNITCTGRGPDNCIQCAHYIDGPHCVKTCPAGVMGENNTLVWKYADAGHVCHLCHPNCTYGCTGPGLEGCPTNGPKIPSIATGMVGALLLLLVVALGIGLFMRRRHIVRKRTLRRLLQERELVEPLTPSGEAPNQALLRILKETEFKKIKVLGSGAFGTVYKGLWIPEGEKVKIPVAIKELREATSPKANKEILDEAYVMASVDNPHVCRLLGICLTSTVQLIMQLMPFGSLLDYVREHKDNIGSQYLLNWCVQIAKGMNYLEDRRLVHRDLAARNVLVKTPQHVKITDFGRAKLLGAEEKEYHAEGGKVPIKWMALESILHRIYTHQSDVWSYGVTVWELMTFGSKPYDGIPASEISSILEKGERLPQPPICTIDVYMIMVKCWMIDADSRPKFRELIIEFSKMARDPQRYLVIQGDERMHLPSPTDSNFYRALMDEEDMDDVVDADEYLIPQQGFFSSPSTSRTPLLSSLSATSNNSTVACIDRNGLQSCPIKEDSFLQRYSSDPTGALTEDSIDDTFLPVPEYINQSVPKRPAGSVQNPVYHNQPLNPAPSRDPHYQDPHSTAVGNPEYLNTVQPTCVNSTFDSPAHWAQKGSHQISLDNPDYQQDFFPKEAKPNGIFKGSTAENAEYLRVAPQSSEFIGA
Chain of BaF3 cell lines stably transfected with kinase EGFR Del (P00533 with tags, fused parts or gaps DEL746-750): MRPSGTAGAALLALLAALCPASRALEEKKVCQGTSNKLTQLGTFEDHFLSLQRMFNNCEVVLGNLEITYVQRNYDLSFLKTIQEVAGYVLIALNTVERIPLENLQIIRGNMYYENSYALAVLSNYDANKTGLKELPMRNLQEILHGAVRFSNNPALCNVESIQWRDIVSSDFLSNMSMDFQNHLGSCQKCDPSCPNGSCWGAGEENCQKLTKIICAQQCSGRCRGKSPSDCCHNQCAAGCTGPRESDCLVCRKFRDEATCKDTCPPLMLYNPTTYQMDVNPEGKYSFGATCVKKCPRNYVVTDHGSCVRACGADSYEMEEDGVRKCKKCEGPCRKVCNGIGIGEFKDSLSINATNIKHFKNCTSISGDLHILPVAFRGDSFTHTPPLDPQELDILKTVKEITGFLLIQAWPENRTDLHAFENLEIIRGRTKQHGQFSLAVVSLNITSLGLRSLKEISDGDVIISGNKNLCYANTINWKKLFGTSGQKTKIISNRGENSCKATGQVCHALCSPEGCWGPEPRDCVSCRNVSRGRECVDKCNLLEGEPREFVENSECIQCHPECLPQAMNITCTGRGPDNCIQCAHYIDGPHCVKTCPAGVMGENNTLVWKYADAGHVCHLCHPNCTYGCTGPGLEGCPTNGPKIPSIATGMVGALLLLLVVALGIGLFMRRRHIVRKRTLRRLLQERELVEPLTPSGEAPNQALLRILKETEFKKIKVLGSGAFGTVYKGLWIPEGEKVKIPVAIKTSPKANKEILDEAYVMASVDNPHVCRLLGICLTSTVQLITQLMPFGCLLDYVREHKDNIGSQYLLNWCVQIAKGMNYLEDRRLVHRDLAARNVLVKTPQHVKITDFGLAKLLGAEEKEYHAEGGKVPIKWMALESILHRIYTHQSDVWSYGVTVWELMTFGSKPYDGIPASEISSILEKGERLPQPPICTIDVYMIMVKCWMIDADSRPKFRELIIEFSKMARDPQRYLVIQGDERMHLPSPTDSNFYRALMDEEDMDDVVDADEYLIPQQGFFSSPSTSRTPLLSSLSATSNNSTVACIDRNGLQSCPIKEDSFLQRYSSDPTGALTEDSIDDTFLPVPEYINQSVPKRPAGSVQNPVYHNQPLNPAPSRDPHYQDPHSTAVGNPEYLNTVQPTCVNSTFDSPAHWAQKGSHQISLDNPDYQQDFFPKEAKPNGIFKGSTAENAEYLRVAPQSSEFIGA
Chain of BaF3 cell lines stably transfected with kinase EGFR Del/T790M/C797S (P00533 with tags, fused parts or gaps DEL746-750/T790M/C797S, form open): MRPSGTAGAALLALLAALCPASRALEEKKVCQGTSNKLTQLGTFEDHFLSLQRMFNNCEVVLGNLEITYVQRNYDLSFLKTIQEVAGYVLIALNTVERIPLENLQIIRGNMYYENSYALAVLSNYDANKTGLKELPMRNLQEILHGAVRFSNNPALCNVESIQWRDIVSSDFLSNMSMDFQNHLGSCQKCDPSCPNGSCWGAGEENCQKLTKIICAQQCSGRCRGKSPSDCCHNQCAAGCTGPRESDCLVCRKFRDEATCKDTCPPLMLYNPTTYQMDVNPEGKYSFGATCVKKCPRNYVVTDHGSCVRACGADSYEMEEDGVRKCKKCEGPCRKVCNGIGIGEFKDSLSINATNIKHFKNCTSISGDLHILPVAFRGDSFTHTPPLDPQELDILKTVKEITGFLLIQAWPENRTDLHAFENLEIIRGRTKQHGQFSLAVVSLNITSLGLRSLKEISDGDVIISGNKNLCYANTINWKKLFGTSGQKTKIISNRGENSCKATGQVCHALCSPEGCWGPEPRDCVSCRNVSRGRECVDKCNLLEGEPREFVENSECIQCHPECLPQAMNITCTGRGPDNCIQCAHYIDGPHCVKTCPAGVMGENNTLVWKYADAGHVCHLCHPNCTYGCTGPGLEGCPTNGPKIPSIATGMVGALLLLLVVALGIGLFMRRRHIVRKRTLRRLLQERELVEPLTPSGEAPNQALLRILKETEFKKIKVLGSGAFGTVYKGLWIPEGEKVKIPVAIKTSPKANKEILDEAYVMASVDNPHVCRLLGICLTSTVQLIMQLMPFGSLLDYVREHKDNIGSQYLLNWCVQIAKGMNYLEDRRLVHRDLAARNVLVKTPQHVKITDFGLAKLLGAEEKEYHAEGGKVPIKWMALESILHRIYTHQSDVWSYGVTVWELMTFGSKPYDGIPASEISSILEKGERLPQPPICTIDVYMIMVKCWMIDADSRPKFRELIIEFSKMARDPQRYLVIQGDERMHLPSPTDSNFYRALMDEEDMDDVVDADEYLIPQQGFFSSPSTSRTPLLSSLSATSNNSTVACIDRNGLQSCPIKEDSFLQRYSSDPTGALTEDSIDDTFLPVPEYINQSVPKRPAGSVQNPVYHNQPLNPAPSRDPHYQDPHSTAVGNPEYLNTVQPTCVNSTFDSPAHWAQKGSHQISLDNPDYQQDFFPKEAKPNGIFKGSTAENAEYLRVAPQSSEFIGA

Row | Structure (SMILES) | GI50 [1] | GI50 [2] | GI50 [3] | GI50 [4] | GI50 [5] | GI50 [6]
1 | C=Cc1cnc(Nc2cc(CC)c(N3CCC(N4CCN(C)CC4)CC3)cc2OC)nc1Nc1ccc2nccnc2c1N(C)S(=O)(=O)C(F)(F)F [II-8] | 50 to 500 nM | 50 to 500 nM | 50 to 500 nM | 50 to 500 nM | 50 to 500 nM | 50 to 500 nM
2 | C=Cc1cnc(Nc2cc(CC)c(N3CCC(N4CCN(C)CC4)CC3)cc2OC)nc1Nc1ccc2nccnc2c1N(C)S(=O)(=O)CC [II-9] | ≤ 50 nM | 50 to 500 nM | 50 to 500 nM | ≤ 50 nM | 50 to 500 nM | 50 to 500 nM
3 | C=Cc1cnc(Nc2cc(CC)c(N3CCC(N4CCN(C)CC4)CC3)cc2OC)nc1Nc1ccc2nccnc2c1N(C)S(=O)(=O)C1CC1 [II-11] | 50 to 500 nM | 50 to 500 nM | ≤ 50 nM | ≤ 50 nM | 50 to 500 nM | 50 to 500 nM
4 | C=Cc1cnc(Nc2cc(CC)c(N3CCC(N4CCN(C)CC4)CC3)cc2OC)nc1Nc1ccc2nccnc2c1N(CC)S(C)(=O)=O [II-12] | ≤ 50 nM | ≤ 50 nM | ≤ 50 nM | ≤ 50 nM | ≤ 50 nM | ≤ 50 nM
5 | C=Cc1cnc(Nc2cc(CC)c(N3CCC(N4CCN(C)CC4)CC3)cc2OC)nc1Nc1ccc2nccnc2c1N(C1CC1)S(C)(=O)=O [II-14] | ≤ 50 nM | ≤ 50 nM | ≤ 50 nM | ≤ 50 nM | 50 to 500 nM | ≤ 50 nM
6 | C=Cc1cnc(Nc2cc(C)c(N3CCC(N4CCN(C)CC4)CC3)cc2OC)nc1Nc1ccc2nccnc2c1N(C)S(C)(=O)=O [II-15] | ≤ 50 nM | ≤ 50 nM | ≤ 50 nM | ≤ 50 nM | ≤ 50 nM | ≤ 50 nM
7 | C=Cc1cnc(Nc2ccc(N3CCC(N4CCN(C)CC4)CC3)cc2OC)nc1Nc1ccc2nccnc2c1N(C)S(C)(=O)=O [II-16] | 50 to 500 nM | 500 to 2500 nM | 50 to 500 nM | 50 to 500 nM | 50 to 500 nM | 500 to 2500 nM
8 | C=Cc1cnc(Nc2cc(C(C)C)c(N3CCC(N4CCN(C)CC4)CC3)cc2OC)nc1Nc1ccc2nccnc2c1N(C)S(C)(=O)=O [II-17] | 50 to 500 nM | 500 to 2500 nM | 50 to 500 nM | 50 to 500 nM | 50 to 500 nM | 50 to 500 nM
9 | C=Cc1cnc(Nc2cc(C3CC3)c(N3CCC(N4CCN(C)CC4)CC3)cc2OC)nc1Nc1ccc2nccnc2c1N(C)S(C)(=O)=O [II-18] | 50 to 500 nM | 50 to 500 nM | 50 to 500 nM | ≤ 50 nM | 50 to 500 nM | 50 to 500 nM
10 | C=Cc1cnc(Nc2cc(Cc3ccccc3)c(N3CCC(N4CCN(C)CC4)CC3)cc2OC)nc1Nc1ccc2nccnc2c1N(C)S(C)(=O)=O [II-19] | 50 to 500 nM | 500 to 2500 nM | 500 to 2500 nM | 50 to 500 nM | ≤ 50 nM | 500 to 2500 nM
11 | C=Cc1cnc(Nc2ccc(N3CCC(N4CCN(C)CC4)CC3)c(CC)c2)nc1Nc1ccc2nccnc2c1N(C)S(C)(=O)=O [II-20] | ≤ 50 nM | ≤ 50 nM | ≤ 50 nM | ≤ 50 nM | ≤ 50 nM | ≤ 50 nM
12 | C=C(C)c1cnc(Nc2cc(CC)c(N3CCC(N4CCN(C)CC4)CC3)cc2OC)nc1Nc1ccc2nccnc2c1N(C)S(C)(=O)=O [II-21] | ≤ 50 nM | ≤ 50 nM | ≤ 50 nM | ≤ 50 nM | ≤ 50 nM | ≤ 50 nM
13 | C=C(C)c1cnc(Nc2cc(C(C)C)c(N3CCC(N4CCN(C)CC4)CC3)cc2OC)nc1Nc1ccc2nccnc2c1N(C)S(C)(=O)=O [II-22] | 500 to 2500 nM | 50 to 500 nM | 50 to 500 nM | 50 to 500 nM | 50 to 500 nM | 50 to 500 nM
14 | C=C(C)c1cnc(Nc2cc(C3CC3)c(N3CCC(N4CCN(C)CC4)CC3)cc2OC)nc1Nc1ccc2nccnc2c1N(C)S(C)(=O)=O [II-23] | 50 to 500 nM | ≤ 50 nM | ≤ 50 nM | ≤ 50 nM | 50 to 500 nM | ≤ 50 nM
